Measurements from US20240316036A1, “DISULFIDE CONTAINING THERAPEUTICS AND DIAGNOSTICS” (Singular Genomics Systems, Inc., priority 2023, published 2024).

Experiment: Cleavage kinetics of cleavable linking moieties (CLM) with reducing agent THPP, compounds immobilized on a solid support
Format: physicochemical
Details: 1 mM THPP, 55° C.
Description: For the assay, a plurality of compounds containing the CLM was immobilized on a solid support. Next, a cleavage solution containing 10 mM THPP as a reducing agent was introduced for controlled periods of time. A second labeled compound was introduced to the solid support; compounds without a CLM will bind the labeled compounds. The cleavage reaction was carried out at 55° C., in a buffer solution at 9.5 pH. The degree of cleavage was measured as the percent of compounds that include a labeled compound as a function of time.
A similar assay as described supra was performed, except that the concentration of the reducing agent was diluted to 1 mM of THPP and the cleavage reaction was carried out at 55° C.

methylene disulfide [CLM #1]
cleavage reaction: slow
